Experimental data published in article PMC9743148 (Annals of oncology : official journal of the European …, 2020).

Test system: patients with advanced solid tumors
Test: Treatment-emergent adverse events
Assay type: in vivo, human
Settings: Combined t.i.w. cohorts (n = 42)

C=CC(=O)N1CC[C@H](n2nc(C#Cc3cc(OC)cc(OC)c3)c3c(N)ncnc32)C1 [futibatinib]
7 (17) n (%): Dry skin TEAE, Any grade
10 (24) n (%): Any treatment-related AE, Grade 3 | Constipation TEAE, Grade 1
8 (19) n (%): Abdominal pain TEAE, Any grade | Anemia TEAE, Grade 2
0 (0) n (%): AST increased TEAE, Grade 3 | AST increased TEAE, Grade 4 | Abdominal pain TEAE, Grade 4 | Alopecia TEAE, Grade 2 | Alopecia TEAE, Grade 3 | Alopecia TEAE, Grade 4 | Anemia TEAE, Grade 4 | Asthenia TEAE, Grade 3 | Asthenia TEAE, Grade 4 | Back pain TEAE, Grade 3 | Back pain TEAE, Grade 4 | Constipation TEAE, Grade 3 | Constipation TEAE, Grade 4 | Cough TEAE, Grade 2 | Cough TEAE, Grade 3 | Cough TEAE, Grade 4 | Decreased appetite TEAE, Grade 4 | Diarrhea TEAE, Grade 3 | Diarrhea TEAE, Grade 4 | Dose reduction because of TEAE, Grade 1 | Dose reduction because of TEAE, Grade 4 | Dosing delay/interruption because of TEAE, Grade 1 | Dry eye TEAE, Grade 2 | Dry eye TEAE, Grade 3 | Dry eye TEAE, Grade 4 | Dry mouth TEAE, Grade 3 | Dry mouth TEAE, Grade 4 | Dry skin TEAE, Grade 3
6 (14) n (%): Dosing delay/interruption because of TEAE, Grade 2 | Dry skin TEAE, Grade 1
11 (26) n (%): Constipation TEAE, Any grade
4 (10) n (%): Abdominal pain TEAE, Grade 1 | Alopecia TEAE, Any grade | Alopecia TEAE, Grade 1 | Asthenia TEAE, Grade 2 | Dose reduction because of TEAE, Any grade
5 (12) n (%): Asthenia TEAE, Grade 1 | Decreased appetite TEAE, Grade 1 | Diarrhea TEAE, Grade 2
2 (5) n (%): Abdominal pain TEAE, Grade 2 | Abdominal pain TEAE, Grade 3 | Anemia TEAE, Grade 1 | Any TEAE, Grade 4 | Back pain TEAE, Grade 1 | Cough TEAE, Any grade | Cough TEAE, Grade 1 | Dry eye TEAE, Any grade | Dry eye TEAE, Grade 1
42 (100) n (%): Any TEAE, Any grade
21 (50) n (%): Dosing delay/interruption because of TEAE, Any grade
13 (31) n (%): Anemia TEAE, Any grade | Dry mouth TEAE, Grade 1
3 (7) n (%): AST increased TEAE, Grade 2 | Anemia TEAE, Grade 3 | Any TEAE, Grade 1 | Back pain TEAE, Any grade | Decreased appetite TEAE, Grade 2 | Dose reduction because of TEAE, Grade 2
12 (29) n (%): Any treatment-related AE, Grade 1 | Diarrhea TEAE, Grade 1
37 (88) n (%): Any treatment-related AE, Any grade
1 (2) n (%): AST increased TEAE, Grade 1 | Any treatment-related AE, Grade 4 | Back pain TEAE, Grade 2 | Constipation TEAE, Grade 2 | Decreased appetite TEAE, Grade 3 | Dose reduction because of TEAE, Grade 3 | Dosing delay/interruption because of TEAE, Grade 4 | Dry mouth TEAE, Grade 2 | Dry skin TEAE, Grade 2
14 (33) n (%): Any TEAE, Grade 2 | Any treatment-related AE, Grade 2 | Dosing delay/interruption because of TEAE, Grade 3 | Dry mouth TEAE, Any grade
17 (40) n (%): Diarrhea TEAE, Any grade
20 (48) n (%): Any TEAE, Grade 3
9 (21) n (%): Asthenia TEAE, Any grade | Decreased appetite TEAE, Any grade
